For data set [1] the following is noted: cited from earlier work.
Data set [2] can be described thus: Equilibrium solubility evaluation in lipids and cosolvents. It counts as physicochemical. Conditions: for solubility at 72 h: 37 °C, thermodynamic from solid, read-out: solubility of PTX. How it is done:
Solubility evaluation of PTX was carried out in various oils and cosolvents till attaining equilibrium by addition of excess quantity of drug to 1 gm of each of the excipient in culture vials and mixed well using vortex mixer (Remi Instruments, Mumbai, India). The sealed vials were kept on water bath shaker at 37±0.5° C. for 72 h for 150 strokes per minute. After specified time period, the samples were centrifuged at 3,000 rpm (402.5×g) for 15 minutes using a laboratory centrifuge (Remi Instruments, Mumbai, India). Drug was extracted in acetonitrile and supernatant fraction was filtered through 0.45 μm membrane filter, suitably diluted and analyzed by previously developed HPLC method.

This is an account of results in patent publication US11547690B1, “Chemotherapeutic self-nanoemulsifying drug delivery systems and uses thereof” (KING ABDULAZIZ UNIVERSITY, priority 2022, dated 2023).

Molecules are shown by their SMILES. In brackets after ≈: the same amount, converted by molar mass. Read-outs that look alike come from different tables or passages of the source.

For orientation: solubility means the dissolved amount per volume that the medium holds. In the case of `CC(=O)O[C@H]1C(=O)[C@@]2(C)[C@H]([C@H](OC(=O)c3ccccc3)[C@]3(O)C[C@H](OC(=O)[C@H](O)[C@@H](NC(=O)c4ccccc4)c4ccccc4)C(C)=C1C3(C)C)[C@]1(OC(C)=O)CO[C@@H]1C[C@@H]2O` [PTX, Paclitaxel], the oral bioavailability in data set [1] is recorded as 5%. For the same compound, the solubility at 72 h in data set [2] (aqueous with cosolvent or surfactant or cyclodextrin, in Tween® 80, 37±0.5° C., 72 h) worked out at 78 mg/mL (≈ 91.3 mM); in data set [2] (aqueous with cosolvent or surfactant or cyclodextrin, in surfactin), 106 mg/mL (≈ 124 mM); in data set [2] (organic solvent or mixture, in Transcutol® HP, 37±0.5° C., 72 h) it was 235 mg/mL (≈ 275 mM). Further, in data set [2] (in 1:1 ratio mixture of ethyl oleate:Plurol® Oleique, 37±0.5° C., 72 h), the “solubility of PTX” value turned out to be 198.5 mg/mL.
